# Test system: LG0567-F671-PDC KRAS tumor spheroid viability
# Assay: Anticancer human tumor LG0567-F671-PDC patient-derived lung adenocarcinoma cell line growth inhibition [KRAS2]
# Settings: spheroids with HUVEC and MSC; for IC50: curve of first compound; for viability, T/C: stronger effect = lower value
# In short: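 KRAS-mutant tumor cells were grown as spheroids with HUVEC endothelial cells and human MSCs as stroma. Targeted agents were tested alone and with KRAS pathway inhibitors. Doses started at or near clinical Cmax, or 10 microM, descending half-log.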
# [1] = second compound 0.1 µM, first compound 0.0316 µM
# [2] = second compound 0.1 µM, first compound 0.1 µM
# [3] = second compound 0.1 µM, first compound 0.316 µM
# [4] = second compound 0.1 µM, first compound 1 µM
# [5] = second compound 0.1 µM, first compound 3.16 µM
# [6] = second compound 0.316 µM, first compound 0.0316 µM
# [7] = second compound 0.316 µM, first compound 0.1 µM
# [8] = second compound 0.316 µM, first compound 0.316 µM
# [9] = second compound 0.316 µM, first compound 1 µM
# [10] = second compound 0.316 µM, first compound 3.16 µM
# [11] = second compound 1 µM, first compound 0.0316 µM
# [12] = second compound 1 µM, first compound 0.1 µM
# [13] = second compound 1 µM, first compound 0.316 µM
# [14] = second compound 1 µM, first compound 1 µM
# [15] = second compound 1 µM, first compound 3.16 µM
# [16] = second compound 3.16 µM, first compound 0.0316 µM
# [17] = second compound 3.16 µM, first compound 0.1 µM
# [18] = second compound 3.16 µM, first compound 0.316 µM
# [19] = second compound 3.16 µM, first compound 1 µM
# [20] = second compound 3.16 µM, first compound 3.16 µM
# [21] = second compound 10 µM, first compound 0.0316 µM
# [22] = second compound 10 µM, first compound 0.1 µM
# [23] = second compound 10 µM, first compound 0.316 µM
# [24] = second compound 10 µM, first compound 1 µM
# [25] = second compound 10 µM, first compound 3.16 µM
# [26] = second compound 0.1 µM, first compound 0.01 µM
# [27] = second compound 0.316 µM, first compound 0.01 µM
# [28] = second compound 1 µM, first compound 0.01 µM
# [29] = second compound 3.16 µM, first compound 0.01 µM
# 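Further: drug exposure lasted seven days after spheroids formed for three days.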
# 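Wherever viability, T/C is given: 100% = DMSO vehicle control viability.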
smiles,measurement,setting,value
CCNC(=O)CC1N=C(c2ccc(Cl)cc2)c2cc(OC)ccc2-n2c(C)nnc21 (stereo not given) + CC1OCC2(CCN(c3cnc(Sc4ccnc(N)c4Cl)c(N)n3)CC2)C1N,IC50,second compound 0.1 µM,278 nM
same,IC50,second compound 0.316 µM,39.9 nM
same,IC50,second compound 1 µM,< 31.6 nM
same,IC50,second compound 3.16 µM,< 31.6 nM
same,IC50,second compound 10 µM,< 31.6 nM
same,"viability, T/C",[1],69.1%
same,"viability, T/C",[2],71.4%
same,"viability, T/C",[3],46.2%
same,"viability, T/C",[4],30.9%
same,"viability, T/C",[5],23.5%
same,"viability, T/C","second compound 0.1 µM, first compound 10 µM",23.8%
same,"viability, T/C",[6],48.4%
same,"viability, T/C",[7],50.9%
same,"viability, T/C",[8],32%
same,"viability, T/C",[9],20.2%
same,"viability, T/C",[10],14.3%
same,"viability, T/C","second compound 0.316 µM, first compound 10 µM",14.1%
same,"viability, T/C",[11],34.5%
same,"viability, T/C",[12],28.7%
same,"viability, T/C",[13],21.5%
same,"viability, T/C",[14],11.2%
same,"viability, T/C",[15],8.48%
same,"viability, T/C","second compound 1 µM, first compound 10 µM",8.48%
same,"viability, T/C",[16],22.7%
same,"viability, T/C",[17],18.6%
same,"viability, T/C",[18],12.2%
same,"viability, T/C",[19],7.87%
same,"viability, T/C",[20],4.55%
same,"viability, T/C","second compound 3.16 µM, first compound 10 µM",4.52%
same,"viability, T/C",[21],10.9%
same,"viability, T/C",[22],11.7%
same,"viability, T/C",[23],7.18%
same,"viability, T/C",[24],2.24%
same,"viability, T/C",[25],1.59%
same,"viability, T/C","second compound 10 µM, first compound 10 µM",0.97%
Cn1ncnc1[C@H]1c2n[nH]c(=O)c3cc(F)cc(c23)N[C@@H]1c1ccc(F)cc1 + C=CC(=O)N1CCN(c2nc(OCC3CCCN3C)nc3c2CCN(c2cccc4cccc(C)c24)C3)CC1CC#N,IC50,second compound 0.0316 µM,< 0.316 nM
same,IC50,second compound 0.1 µM,< 0.316 nM
same,IC50,second compound 0.316 µM,< 0.316 nM
same,IC50,second compound 1 µM,< 0.316 nM
same,IC50,second compound 3.16 µM,< 0.316 nM
same,"viability, T/C","second compound 0.0316 µM, first compound 0.000316 µM",44.2%
same,"viability, T/C","second compound 0.0316 µM, first compound 0.001 µM",41.6%
same,"viability, T/C","second compound 0.0316 µM, first compound 0.00316 µM",36.3%
same,"viability, T/C","second compound 0.0316 µM, first compound 0.01 µM",35.6%
same,"viability, T/C","second compound 0.0316 µM, first compound 0.0316 µM",32%
same,"viability, T/C","second compound 0.0316 µM, first compound 0.1 µM",29.4%
same,"viability, T/C","second compound 0.1 µM, first compound 0.000316 µM",34%
same,"viability, T/C","second compound 0.1 µM, first compound 0.001 µM",28.7%
same,"viability, T/C","second compound 0.1 µM, first compound 0.00316 µM",37.9%
same,"viability, T/C",[26],27.4%
same,"viability, T/C",[1],27.6%
same,"viability, T/C",[2],27.9%
same,"viability, T/C","second compound 0.316 µM, first compound 0.000316 µM",34%
same,"viability, T/C","second compound 0.316 µM, first compound 0.001 µM",35.5%
same,"viability, T/C","second compound 0.316 µM, first compound 0.00316 µM",25.3%
same,"viability, T/C",[27],25.8%
same,"viability, T/C",[6],29.6%
same,"viability, T/C",[7],30.8%
same,"viability, T/C","second compound 1 µM, first compound 0.000316 µM",41.2%
same,"viability, T/C","second compound 1 µM, first compound 0.001 µM",32.9%
same,"viability, T/C","second compound 1 µM, first compound 0.00316 µM",35.3%
same,"viability, T/C",[28],26.7%
same,"viability, T/C",[11],26.1%
same,"viability, T/C",[12],24.9%
same,"viability, T/C","second compound 3.16 µM, first compound 0.000316 µM",14.8%
same,"viability, T/C","second compound 3.16 µM, first compound 0.001 µM",16.5%
same,"viability, T/C","second compound 3.16 µM, first compound 0.00316 µM",15.4%
same,"viability, T/C",[29],16.1%
same,"viability, T/C",[16],10.8%
same,"viability, T/C",[17],9.1%
CC1COCCN1c1cc(-c2ccnn2C)c2ccnc(-c3ccn[nH]3)c2n1 (stereo not given) + CC1OCC2(CCN(c3cnc(Sc4ccnc(N)c4Cl)c(N)n3)CC2)C1N,IC50,second compound 0.1 µM,< 10 nM
same,IC50,second compound 0.316 µM,< 10 nM
same,IC50,second compound 1 µM,< 10 nM
same,IC50,second compound 3.16 µM,< 10 nM
same,IC50,second compound 10 µM,< 10 nM
same,"viability, T/C",[26],59.9%
same,"viability, T/C",[1],41.8%
same,"viability, T/C",[2],32%
same,"viability, T/C",[3],36.3%
same,"viability, T/C",[4],41.7%
same,"viability, T/C",[5],48.2%
same,"viability, T/C",[27],39%
same,"viability, T/C",[6],31.8%
same,"viability, T/C",[7],24.9%
same,"viability, T/C",[8],18.5%
same,"viability, T/C",[9],21.6%
same,"viability, T/C",[10],27.5%
same,"viability, T/C",[28],28.2%
same,"viability, T/C",[11],23.4%
same,"viability, T/C",[12],19%
same,"viability, T/C",[13],15.3%
same,"viability, T/C",[14],10.2%
same,"viability, T/C",[15],9.22%
same,"viability, T/C",[29],23%
same,"viability, T/C",[16],16.3%
same,"viability, T/C",[17],10.9%
same,"viability, T/C",[18],7.95%
same,"viability, T/C",[19],8.32%
same,"viability, T/C",[20],3.11%
same,"viability, T/C","second compound 10 µM, first compound 0.01 µM",14.4%
same,"viability, T/C",[21],12%
same,"viability, T/C",[22],7.07%
same,"viability, T/C",[23],3.98%
same,"viability, T/C",[24],2.99%
same,"viability, T/C",[25],1.57%

# — PubChem BioAssay AID1963856 (Molecular Pharmacology Branch, DTP, NCI, 2024)
